Source: ChEMBL document CHEMBL1157276, “Halogenated monoterpenes from plocamium costatum and their biological activity1” (1999)

Tests used:
Type in all cases: functional
Amphibalanus amphitrite [1] = assay: Antifouling activity against cypris larvae at 0.1 ug/cm'2
Amphibalanus amphitrite [2] = assay: Antifouling activity against cypris larvae at 1 ug/cm'2
Amphibalanus amphitrite [3] = assay: Antifouling activity against cypris larvae at 10 ug/cm'2
Amphibalanus amphitrite [4] = assay: Antifouling activity against cypris larvae at 0.01 ug/cm'2

SMILES | Activity (Amphibalanus amphitrite [1]) | Activity (Amphibalanus amphitrite [2]) | Activity (Amphibalanus amphitrite [3]) | Activity (Amphibalanus amphitrite [4])
C[C@](Cl)(/C=C/[C@H](Cl)[C@](C)(Cl)/C=C/Br)C(Br)Br | 54% | 37% | 2.2% | 42%
C=CC(C)(O)CCCC(C)CCCC(C)CCCC(C)C (configuration not stated) | 54% | 23% | 13% | 43%
C=C(C)C(Cl)C/C=C(\C)C(Cl)CBr (configuration not stated) | 52% | 53% | 58% | 57%
